Series [1] can be described thus: pharmacokinetic properties in mouse after single intravenous and oral administration. The series is classed as in vivo. The following applies: PK data in mouse; for Feces iv: @0.2 (dose, unit not given); for clearance / half-life / Cmax / Vd: female, plasma, 0.2 mg/kg; for Cmax: dose-normalized to 1 mg/kg; for Vd: read-out: Vss. From the text: The objective of the study was to obtain information on the pharmacokinetic properties of the compounds of the present invention in female Wistar rats/mice following single intravenous and oral administration.
Female Wistar rats/mice (n=6) received either a single intravenous (bolus) injection or an oral administration (by gavage) of the tested compound.
The concentrations of the compounds in plasma, feces were quantified using an UPLC method with tandem mass spectrometric detection (LC-MS/MS) previously developed at the ‘Institute of Drug Metabolism and Pharmacokinetics’. The LC-MS/MS system consisted of a Waters Acquity UPLC coupled to an AB Sciex mass spectrometer API 5500 Q-trap. […] The detection of the compounds was performed using multiple reaction monitoring in the positive ionization mode. Plasma samples were spiked with internal standard (20 μl) and the analyte was extracted from the matrix using tertiary-butyl methyl ether (tBME). The organic phase was evaporated to dryness under a stream of nitrogen. The residue was dissolved in acetonitrile/0.1% formic acid for LC-MS/MS analysis. Feces samples were homogenized with 4-times their volume of an ethanol/water mixture (4:1, v/v). Aliquots of the aqueous-ethanolic extracts were spiked with internal standard, diluted with acetonitrile/water (1:1, v/v) and directly injected into the LC-MS/MS system.
Pharmacokinetic parameters Cmax and tmax were taken from the observed data. […] AUC values were calculated by non-compartmental analysis using the linear up/log down method. Numerical data for mean plasma concentrations and derived pharmacokinetic parameters were rounded to 3 significant digits for presentation.

Series [2] relates to mouse Pan T cells. The experiment in a line: mouse Pan T cell IL-2 rescue from A2A agonist CGS-21680 (ELISA, 24 h). The following applies: for IC50: Mus musculus, T-cell. The series is classed as cell-based. The text has this:
(§1) Adenosine (Ado) in tumor microenvironment can inhibit T cell activity by signaling through A2A receptors and suppress cytokine secretion by T cells. […] Potential A2A antagonists or A2A/A2B dual antagonists can rescue T cells from this inhibition. Herein, we describe the in vitro system we established using Pan T cells from mouse spleens to screen potential A2A antagonists or A2A/A2B dual antagonists for their activity. The method described involves the use of CD3/CD28 pre-coated beads to stimulate Pan T cells purified from mouse splenocytes, combined with the addition of A2A agonist along with potential A2A or A2A/A2B dual antagonists to evaluate potentiation of T cell cytokine production.
(§2) Briefly, mouse Pan T cells are purified from spleens of BALB/c mice using Pan T cell isolation kit Mouse II (MACS Miltenyi biotech Cat # Order no. 130-095-130) according to manufacturer's protocol. The purified T cells are seeded in Nunc™ 96-Well Polystyrene Round Bottom Microwell Plates in RPMI medium with 10% heat inactivated fetal bovine serum. The cells are rested at 37° C. for 1 h before activating with CD3/CD28 pre-coated beads (Dynabeads™ Mouse T-Activator CD3/CD28; Cat #11456D). After 30 min the cells are treated with varying doses of test antagonist(s). […] After 24 h incubation IL-2 levels in the supernatants and after 48 h incubation IFN-γ levels in the supernatants are measured by ELISAs according to manufacturer's protocol (R&D systems Cat # DY402 (IL-2); DY485 (IFN-γ)). Once the concentrations are calculated, the difference of cytokine concentration of DMSO control and agonist alone control is calculated (called A) and the percentage of rescue by each concentration of antagonist is calculated by using Microsoft Excel. These percentages of cytokine rescue in a dose dependent manner of antagonist is plotted in GraphPad Prism software and IC50 is calculated.
(An ELISA detects its analyte on a solid surface through an enzyme-linked reagent.)

Series [3] concerns mouse Pan T cells. In words: mouse Pan T cell IFN-γ rescue from A2A agonist CGS-21680 (ELISA, 48 h). The series is classed as cell-based. The following applies: for IC50: Mus musculus, T-cell.
Text: as §1, §2

The target in the next series is T1, human A1 receptor (Homo sapiens, UniProt P30542).
T1 construct: expressed in transfected cells; host or cells: CHO
T1 sequence (P30542 1-326): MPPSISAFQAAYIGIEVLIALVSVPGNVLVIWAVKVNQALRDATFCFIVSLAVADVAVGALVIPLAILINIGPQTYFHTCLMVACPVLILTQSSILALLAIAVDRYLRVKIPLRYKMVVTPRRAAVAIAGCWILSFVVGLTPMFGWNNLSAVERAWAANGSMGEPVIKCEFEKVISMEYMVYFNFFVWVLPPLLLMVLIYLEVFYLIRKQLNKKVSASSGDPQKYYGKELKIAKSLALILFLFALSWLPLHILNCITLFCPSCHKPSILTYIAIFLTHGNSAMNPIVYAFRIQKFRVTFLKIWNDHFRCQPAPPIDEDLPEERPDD
The experiment in a line: functional cAMP (HTRF) assay, recombinant CHO cells expressing human A1 receptor, forskolin, agonist CPA. In kind it is cell-based. The gist of the method: (§3)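 Recombinant CHO cells expressing A1 or A3 receptor (Gi-coupled) were stimulated with forskolin together with test compound and agonist (CPA for A1, IB-MECA for A3), incubated 30 min, then cellular cAMP was read by HTRF. Data were normalized to inhibitor control and DMSO neutral control, then curve-fitted.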
(In general: Time-resolved FRET reads energy transfer from a long-lived donor to a nearby acceptor.)

The target of the next series is T2, human A3 receptor (Homo sapiens, UniProt P0DMS8).
T2 construct: expressed in transfected cells; host or cells: CHO
T2 sequence (P0DMS8 1-318): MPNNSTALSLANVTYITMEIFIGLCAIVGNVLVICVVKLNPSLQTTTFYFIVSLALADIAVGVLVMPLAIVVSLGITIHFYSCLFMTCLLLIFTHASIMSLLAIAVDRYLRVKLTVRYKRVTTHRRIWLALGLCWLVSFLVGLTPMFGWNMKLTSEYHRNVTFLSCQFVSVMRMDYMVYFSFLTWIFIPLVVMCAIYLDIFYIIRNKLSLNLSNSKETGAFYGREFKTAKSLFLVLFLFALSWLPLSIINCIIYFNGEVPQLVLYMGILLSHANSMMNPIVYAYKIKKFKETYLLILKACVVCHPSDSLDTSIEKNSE
In words: functional cAMP (HTRF) assay, recombinant CHO cells expressing human A3 receptor, forskolin, agonist IB-MECA. In kind it is cell-based. Summed up:
as §3

The target in another series is T3, human A2A receptor (Homo sapiens, UniProt P29274).
T3 construct: expressed in transfected cells; host or cells: HEK293
T3 sequence (P29274 whole entry): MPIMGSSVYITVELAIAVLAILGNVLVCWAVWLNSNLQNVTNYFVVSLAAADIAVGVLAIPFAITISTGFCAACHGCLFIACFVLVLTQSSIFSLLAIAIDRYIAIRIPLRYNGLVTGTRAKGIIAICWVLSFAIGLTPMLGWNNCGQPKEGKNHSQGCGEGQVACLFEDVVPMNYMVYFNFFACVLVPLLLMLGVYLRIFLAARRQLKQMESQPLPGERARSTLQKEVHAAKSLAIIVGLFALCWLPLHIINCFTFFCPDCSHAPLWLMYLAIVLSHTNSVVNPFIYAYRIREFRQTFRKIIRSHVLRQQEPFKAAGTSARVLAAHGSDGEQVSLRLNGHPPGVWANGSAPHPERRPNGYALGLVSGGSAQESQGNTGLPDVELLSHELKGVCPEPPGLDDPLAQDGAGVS
The experiment in a line: functional cAMP (HTRF) assay, recombinant HEK293 cells expressing human A2A receptor, agonist NECA. In kind it is cell-based.

In the next series the target is T4, A2B receptors (Homo sapiens, UniProt P29275).
T4 sequence (P29275 1-332): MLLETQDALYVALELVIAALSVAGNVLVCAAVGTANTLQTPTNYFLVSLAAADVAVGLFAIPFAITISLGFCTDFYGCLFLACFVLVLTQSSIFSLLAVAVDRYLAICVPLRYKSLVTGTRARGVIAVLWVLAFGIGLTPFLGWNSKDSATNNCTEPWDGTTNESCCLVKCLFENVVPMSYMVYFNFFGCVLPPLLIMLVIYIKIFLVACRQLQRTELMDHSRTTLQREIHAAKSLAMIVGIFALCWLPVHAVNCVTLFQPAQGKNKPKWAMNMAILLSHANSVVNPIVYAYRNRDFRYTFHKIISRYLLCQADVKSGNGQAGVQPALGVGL
In words: functional cAMP (HTRF) assay, recombinant HEK293 cells expressing human A2B receptor, agonist NECA. The series is classed as cell-based. The arrangement: expressed in transfected cells; host or cells: HEK293.

Where [4] appears, read: IC50 of cytokine rescue, CGS-21680 1 μM, CD3/CD28 beads.

Consider `COc1ccc(N2CCOCC2)c2sc(NC(=O)N3CCC(C)(O)CC3)nc12` [Tozadenant, reference compound], for which the Feces iv in series [1] is recorded as 23@0.2%. Also, the “Mouse T-Cell IL-2” value in the series on mouse Pan T cells [2] (setting [4]) is given as “NA (<50% rescue)”. The “Mouse IFN-γ” value with mouse Pan T cells [3] (setting [4]) was “NA (<50% rescue)”.
`CCNCc1ccc(C(=O)Nc2nc3c(-c4ccccc4)ccc(OC)c3[nH]2)cc1` [compound 11, 4-Ethylaminomethyl-N-(7-methoxy-4-phenyl-1H-benzoimidazol-2-yl)-benzamide]: the IC50 was more than 1000 nM on human A1 receptor; more than 1000 nM on human A3 receptor; 44 nM with mouse Pan T cells [2]; 75 nM with mouse Pan T cells [3]; less than 10 nM on human A2A receptor; less than 100 nM on A2B receptors.
In the case of `COc1ccc(-c2ccccc2)c2nc(NC(=O)c3ccc(Cn4ccnc4)cc3)[nH]c12` [compound 15, 4-Imidazol-1-ylmethyl-N-(7-methoxy-4-phenyl-1H-benzoimidazol-2-yl)-benzamide], the IC50 at human A1 receptor was less than 1000 nM; at human A3 receptor, less than 100 nM; with mouse Pan T cells [2] it was 1110 nM; on human A2A receptor it was less than 10 nM; on A2B receptors, less than 10 nM.
For `COc1ccc(-c2cnn(C)c2)c2nc(NC(=O)N3CCC(C)(CO)CC3)[nH]c12` [compound 35, 4-Hydroxymethyl-4-methyl-piperidine-1-carboxylic acid [7-methoxy-4-(1-methyl-1H-pyrazol-4-yl)-1H-benzoimidazol-2-yl]-amide], the results for the IC50 in the series on mouse Pan T cells [2] and in the series with mouse Pan T cells [3] were 120 nM and 220 nM, respectively.
For `COc1ccc(-c2cnn(C)c2)c2nc(NC(=O)N3CCC4(CCCOC4)C3)[nH]c12` (stereo not drawn) [compound 67, N-[7-methoxy-4-(1-methyl-1H-pyrazol-4-yl)-1H-1,3-benzodiazol-2-yl]-7-oxa-2-azaspiro[4.5]decane-2-carboxamide], in the series on mouse Pan T cells [3], the IC50 worked out at 800 nM.
Consider `COc1ccc(-c2cnn(C)c2)c2nc(NC(=O)c3ccc(Cn4ccnc4)cc3)[nH]c12` [compound 71, 4-[(1H-imidazol-1-yl)methyl]-N-[7-methoxy-4-(1-methyl-1H-pyrazol-4-yl)-1H-1,3-benzodiazol-2-yl]benzamide], for which the IC50 at human A1 receptor was more than 1000 nM; on human A3 receptor, less than 1000 nM; in the series with mouse Pan T cells [2], 40 nM; with mouse Pan T cells [3], 40 nM; on human A2A receptor it was less than 10 nM; on A2B receptors, less than 100 nM.
On to `C#CCC1(O)CCN(C(=O)Nc2nc3c(-c4cnn(C)c4)ccc(OC)c3[nH]2)CC1` [compound 92, 4-hydroxy-N-[7-methoxy-4-(1-methyl-1H-pyrazol-4-yl)-1H-1,3-benzodiazol-2-yl]-4-(prop-2-yn-1-yl)piperidine-1-carboxamide], for which the IC50 at human A1 receptor is more than 1000 nM; on human A3 receptor it was more than 1000 nM; in the series with mouse Pan T cells [2], 1000 nM; in the series on mouse Pan T cells [3] it was 500 nM; at human A2A receptor, less than 10 nM; at A2B receptors, less than 1000 nM. Besides, the Feces iv in series [1] is 26@0.2%. The molecule also showed a clearance in series [1] of 31.7 mL/min/kg. Also, the half-life in series [1] was 33.4 min. Also, in series [1], the highest concentration (Cmax) is 892 ng/mL. Moreover, the Vd in series [1] is 1.17 L/kg.
On to `COc1ccc(-c2cnn(C)c2)c2nc(NC(=O)c3ccc(C(=O)N(C)C)cc3)[nH]c12` [compound 93, N4-[7-methoxy-4-(1-methyl-1H-pyrazol-4-yl)-1H-1,3-benzodiazol-2-yl]-N1,N1-dimethylbenzene-1,4-dicarboxamide], for which the IC50 on human A1 receptor was more than 1000 nM; at human A3 receptor, more than 1000 nM; in the series with mouse Pan T cells [2], 111 nM; with mouse Pan T cells [3], 350 nM; at human A2A receptor, less than 10 nM; on A2B receptors, less than 100 nM. The Feces iv in series [1] is given as 42@0.2%. For the same molecule, the clearance in series [1] is 6.77 mL/min/kg. In series [1], this molecule gave a half-life of 46.1 min. In series [1], the concentration peaked (Cmax) at 3160 ng/mL. Moreover, in series [1], the Vd is 0.357 L/kg.
For `COc1ccc(-c2cnn(C)c2)c2nc(NC(=O)c3ccc(OC(F)(F)F)cc3)[nH]c12` [compound 94, N-[7-methoxy-4-(1-methyl-1H-pyrazol-4-yl)-1H-1,3-benzodiazol-2-yl]-4-(trifluoromethoxy)benzamide], the IC50 on human A1 receptor is more than 1000 nM; at human A3 receptor, less than 1000 nM; in the series with mouse Pan T cells [3], 1000 nM; at human A2A receptor, less than 10 nM; at A2B receptors, less than 1000 nM.
As to `COc1ccc(-c2cnn(C)c2)c2nc(NC(=O)c3ccc(CN4CCCC4=O)cc3)[nH]c12` [compound 100, N-[7-methoxy-4-(1-methyl-1H-pyrazol-4-yl)-1H-1,3-benzodiazol-2-yl]-4-[(2-oxopyrrolidin-1-yl)methyl]benzamide], the IC50 on human A1 receptor is more than 1000 nM; on human A3 receptor, more than 1000 nM; with mouse Pan T cells [2], 100 nM; in the series on mouse Pan T cells [3], 80 nM; at human A2A receptor, less than 10 nM; on A2B receptors, less than 1000 nM. Besides, the Feces iv in series [1] was 12.5@0.2%. The same molecule had a clearance in series [1] of 22.5 mL/min/kg. The half-life in series [1] is 32.9 min. In addition, the concentration in series [1] peaked (Cmax) at 888 ng/mL. Further, the Vd in series [1] was 1.05 L/kg.
Consider `COc1ccc(-c2cnn(C)c2)c2nc(NC(=O)N3CC[C@@]4(CCCOC4)C3)[nH]c12` [compound 114, (5S)-N-[7-methoxy-4-(1-methyl-1H-pyrazol-4-yl)-1H-1,3-benzodiazol-2-yl]-7-oxa-2-azaspiro[4.5]decane-2-carboxamide], for which the IC50 on human A1 receptor is more than 1000 nM; on human A3 receptor, more than 1000 nM; in the series with mouse Pan T cells [2] it was 900 nM; in the series on mouse Pan T cells [3] it was 900 nM; at human A2A receptor, less than 10 nM; on A2B receptors, more than 1000 nM. Further, the Feces iv in series [1] was 9@0.2%. The molecule further showed a clearance in series [1] of 9.43 mL/min/kg. The same molecule had a half-life in series [1] of 66.6 min. In series [1], the highest level (Cmax) was 1440 ng/mL. Besides, the Vd in series [1] is 0.842 L/kg.

As usually defined, the IC50 is the midpoint of a concentration-inhibition curve. As usually defined, the half-life is the time needed for the level to fall by half in the phase considered. The low end stands for fast loss, the high end for slow loss. For orientation: Cmax means the maximum level reached in the sampled fluid or tissue.

(Values after patent publication US11453647B2, “Benzimidazole derivatives as adenosine receptor antagonists” (Merck Patent GmbH, priority 2017, dated 2022).)
